In ChEMBL document CHEMBL2016471, “5-benzylidenerhodanine and 5-benzylidene-2-4-thiazolidinedione based antibacterials” (2012):
Converted amounts (≈) assume the structure as drawn. The source made the active and inactive calls. No cut-off for these calls is given here.

Key:
[1] = system: Staphylococcus epidermidis; experiment: Antibacterial activity against Staphylococcus epidermidis; assay type: functional
Escherichia coli [2] = experiment: Antibacterial activity against Escherichia coli K-12; assay type: functional, organism-based
Staphylococcus aureus [3] = experiment: Bacteriostatic activity against Staphylococcus aureus after 6 hrs; assay type: functional, organism-based
Bacillus subtilis = experiment: Antibacterial activity against Bacillus subtilis ATCC 6633; assay type: functional
Staphylococcus aureus [4] = experiment: Antibacterial activity against Staphylococcus aureus ATCC 31890; assay type: functional
Escherichia coli [5] = experiment: Antibacterial activity against TolC-deficient Escherichia coli; assay type: functional

MIC [1] [µg/mL] | MIC (Bacillus subtilis) [µg/mL] | MIC (Staphylococcus aureus [4]) [µg/mL] | MIC (Escherichia coli [5]) [µg/mL] | Structure (SMILES) | Activity (Escherichia coli [2]) | Activity (Staphylococcus aureus [3])
32 (≈ 74.5 µM) | 16 (≈ 37.2 µM) | 16 (≈ 37.2 µM) |  | CCCc1ccccc1OC[C@H](O)COc1ccc(/C=C2\SC(=S)NC2=O)cc1 | inactive | Active
> 64 | 32 (≈ 70.5 µM) | > 64 |  | CCCc1ccccc1NC(=O)[C@H](C)NC(=O)c1ccc(/C=C2\SC(=S)NC2=O)cc1 | inactive | 
16 (≈ 30.4 µM) | 8 (≈ 15.2 µM) | 16 (≈ 30.4 µM) |  | CCCc1ccccc1NC(=O)[C@H](COC(C)(C)C)NC(=O)c1ccc(/C=C2\SC(=S)NC2=O)cc1 | inactive | 
> 64 | 8 (≈ 16.7 µM) | > 64 |  | CCCc1ccccc1NC(=O)[C@H](CC(C)C)NC(=O)c1ccc(/C=C2\SC(=O)NC2=O)cc1 | inactive | 
> 64 | 8 (≈ 14.3 µM) | > 64 |  | CCCc1ccccc1NC(=O)[C@H](COCc1ccccc1)NC(=O)c1ccc(/C=C2\SC(=S)NC2=O)cc1 | inactive | 
16 (≈ 75.7 µM) | > 64 | 16 (≈ 75.7 µM) |  | O=C1NC(=S)S/C1=C\c1ccco1 | inactive | 
> 64 | > 64 | > 64 |  | CCCc1ccccc1NC(=O)[C@H](CO)NC(=O)c1ccc(/C=C2\SC(=S)NC2=O)cc1 | inactive | 
0.5 (≈ 1.84 µM) | > 64 | 0.5 (≈ 1.84 µM) | 8 (≈ 29.5 µM) | O=C1NC(=S)S/C1=C\c1ccc2ccccc2c1 | inactive | 
> 64 | 8 (≈ 14.7 µM) | > 64 |  | CCCc1ccccc1NC(=O)[C@H](Cc1ccc(O)cc1)NC(=O)c1ccc(/C=C2\SC(=S)NC2=O)cc1 | inactive | 
> 64 | > 64 | > 64 |  | CCCc1ccccc1NC(=O)[C@H](Cc1ccccc1)NC(=O)c1ccc(/C=C2\SC(=S)NC2=O)cc1 | inactive | 
> 64 | 32 (≈ 64.6 µM) | > 64 |  | CCCc1ccccc1NC(=O)[C@H](CC(C)C)NC(=O)c1ccc(/C=C2\SC(=S)NC2=O)cc1 | inactive | 
> 64 | > 64 | > 64 |  | O=C1NC(=O)/C(=C/c2ccc(C(=O)O)cc2)S1 | inactive | 
> 64 | 8 (≈ 19.3 µM) | > 64 |  | CCCc1ccccc1OC[C@H](O)COc1ccc(/C=C2\SC(=O)NC2=O)cc1 | inactive | 
> 64 | > 64 | > 64 |  | O=C1NC(=S)S/C1=C\c1ccc(C(=O)O)cc1 | inactive | 
> 64 | > 64 | > 64 |  | CCCc1ccccc1NC(=O)[C@H](CO)NC(=O)c1ccc(/C=C2\SC(=O)NC2=O)cc1 | inactive | 
> 64 | > 64 | > 64 |  | CCCc1ccccc1NC(=O)[C@H](C)NC(=O)c1ccc(/C=C2\SC(=O)NC2=O)cc1 | inactive | 
> 64 | 8 (≈ 15.6 µM) | > 64 |  | CCCc1ccccc1NC(=O)[C@H](Cc1ccccc1)NC(=O)c1ccc(/C=C2\SC(=O)NC2=O)cc1 | inactive | 
> 64 | > 64 | > 64 |  | O=C1NC(=O)/C(=C/c2cccnc2)S1 | inactive | 
> 64 | > 64 | > 64 |  | O=C1NC(=O)/C(=C/c2ccccc2)S1 | inactive | 
